# From patent US7306811B2, “Fungicide composition based on halosulphone in particular for packaging” (priority 2000, dated 2007)
# System: six mushroom strains: Aspergillus Sydowi, Aspergillus Versicolor, Cladosporium Herbarum, Cladosporium Sphaerospernum, Penicillium Citrinum and Penicillium …
# Assay: Development of moulds on treated paper, standard AFNOR X 41 517
# Details: overall judgement of the paper mould test
# Experimental: The following test was carried out. Two surfaces of a woodless industrial paper weighing 80 g/m^2 dry, having a 1-minute COBB value of 25 to 35, were brought into contact with six mushroom strains for 14 days under the quality test conditions of the standard AFNOR X 41 517: the strains used were Aspergillus Sydowi, Aspergillus Versicolor, Cladosporium Herbarum, Cladosporium Sphaerospernum, Penicillium Citrinum and Penicillium Corylophilum. At the end of this period, visual assessment of the development of moulds was noted using a code from 0 to 6+, the value 6+ being allocated to the untreated control, while the notation 0 corresponded to no development of the seeded moulds.
# The fungicide solutions used in this test were prepared in the same way as mentioned above. With regard to the fungicide T1, chlorothalonil was mixed in water. The fungicidal product T2 was prepared on the basis of di-iodo-ethyl-p-tolyl-sulphone only. The fungicide T3 was prepared from a mixture of chlorotalonyl and a zinc pyrithione. The fungicide T4 was prepared from a mixture of Amical (di-iodomethyl-p-tolyl-sulphone, and zinc pyrithione. Finally the fungicide T5 corresponds to the mixture given by way of example above according to the invention, i.e. a mixture of chlorotalonyl and di-iodo-methyl-p-tolyl-sulphone or Amical.
row,SMILES,"fungicidal quality in words, as seen from the Table"
1,"N#Cc1c(Cl)c(Cl)c(Cl)c(C#N)c1Cl [Chlorothalonil alone T1, 2,4,5,6 tetrachloro-1,3 benzene dicarbonitrile]",average fungicide
2,"Cc1ccc(S(=O)(=O)C(I)I)cc1 [DIMPTS alone T2, di-iodomethyl-p-tolyl-sulphone]",excellent fungicide
